In ChEMBL document CHEMBL5360596, “Triquinane Sesquiterpene Glycosides from the Basidiomycete Antrodiella zonata” (J Nat Prod, 2023):
In brackets after ≈: the same amount, converted by molar mass.

Experiments:
[1] = system: Staphylococcus aureus; experiment: Antibacterial activity against Staphylococcus aureus ATCC 29213 assessed as bacterial growth inhibition incubated for 24 hrs by photometric analysis; assay type: functional
[2] = Immunosuppressive activity against B cell (unknown origin) assessed as inhibition of LPS-induced cell proliferation; assay type: functional, cell-based

MIC50 [1] [µM] | Compound | IC50 [2] [µM]
69 (≈ 25.3 µg/mL) | CC1=C2[C@@H]3CC(C)(C)C[C@@H]3[C@H](O[C@@H]3OC[C@@H](O)[C@H](O)[C@H]3O)[C@@]2(C)CC1=O | –
– | CCCCCC[C@@H](O)C(=O)O[C@@H]1[C@@H]2[C@H](CC1(C)C)[C@H](O)[C@@]1([C@H](O)C(=O)OC)OCC(=O)[C@@]21C | 6.6
34 (≈ 13 µg/mL) | CC1(C)C[C@H]2[C@@H](C1)C1=CC(=O)C[C@]1(C)[C@H]2O[C@@H]1O[C@H](CO)[C@@H](O)[C@H](O)[C@H]1O | –
35 (≈ 13.9 µg/mL) | CC1=C2[C@@H]3CC(C)(C)C[C@@H]3[C@H](O[C@@H]3O[C@H](CO)[C@@H](O)[C@H](O)[C@H]3O)[C@@]2(C)CC1=O | –
